From patent publication US6525089B1, “Pharmaceutical composition containing decursin” (Binex Co., Ltd., priority 1998, dated 2003)

Legend:
ICR mice [1] = assay: Urinary test, alloxan-treated mice; assay type: in vivo; conditions: Alloxan group
Description: (§1) 2 days after ICR mice were given alloxan (75 mg/kg, i.v.), their glucose levels at fasting were measured to select high-glucose mice. The high-glucose mice were divided into two groups; physiological saline solution was given to one group, while decursin was orally administered to the other group at a dose of 50 mg/kg for 10 days. The alloxan-free group was also orally given physiological saline solution for 10 days. The body weighs were checked periodically, together with urinary tests. To isolate their sera and kidney, mice were slightly anesthetized with ether and their abdomens were dissected. The blood samples were collected from heart to isolate the sera. The kidney was perfused with 0.9% NaCl and isolated after removal of the blood. Then the weight of right kidney was measured. Further, to measure the protein amount from the kidney tissues, these tissues were assayed according to the Bradford method using Bio-Rad protein assay kit in the presence of bovine serum albumin as a reference standard. To measure the MDA in the kidney tissues, 0.4 ml of 10% sodium dodecylsulfate was added to 0.5 ml of 10% kidney-tissue homogenization solution and left in water bath at 37° C. for 30 minutes; With the subsequent addition of 0.1N-HCl (2 ml) and 0.67% TBA (1 ml), the mixture was voltexed and left in boiling water bath for 30 minutes. The mixture was further cooled in ice bath for 2˜3 minutes to stop the reaction. Then 2 ml of n-butanol was added to the mixture, stirred well and centrifuged at 3000 rpm for 10 minutes. The supernatant was collected to measure the absorbance at 532 nm. 10 μg/ml tetraethoxypropane (TEP) was employed as a reference standard. To measure the MDA in sera, 0.8% thiobarbituric acid (TBA) was added to 0.5 ml of sera and left in boiling water bath for 30 minutes. The mixture was further cooled in ice bath for 2˜3 minutes to stop the reaction. The supernatant was collected to measure the absorbance at 532 nm. 10 μg/ml TEP was employed as a reference standard.

ICR mice [2] = assay: BUN and MDA in blood and MDA in renal tissue, alloxan-treated mice; assay type: in vivo; conditions: alloxan 75 mg/kg i.v., saline for 10 days
Description: as §1
Mice were orally given decursin at a dose of 50 mg/kg for 10 days continuously. Then various parameters such as BUN and MDA in the blood as a marker of renal failure were measured, together with urinary test. When […] (table 4), the BUN value of single alloxan-treated group, 17.4±3.7 mg/dl was recovered to the normal level (4.8±0.6 mg/dl) by the treatment of decursin. The MDA value of single alloxan-treated group, 0.51±0.07, was reduced to 0.36±0.03 by the treatment of decursin, which was similar to a normal control group. Thus it was noted that the damage in the kidney was completely recovered. Since the reduction of both MDA values in the blood and kidney tissues may be clinically reasonable and desirable, the MDA value in the kidney tissues was measured. As a result, the MDA value in the kidney tissues of a single alloxan-treated group, 13.24±5.93, was reduced to 5.63±0.99 by the treatment of decursin, which was lower than that of normal control group (8.44±1.01).

U-937 cells [3] = assay: Growth inhibition test (trypan blue exclusion); assay type: cell-based, human; conditions: 4 days (96 hours)
Description: U-937 cells, optioned from Korea Cell Line Bank, was cultured in RPMI 1640 medium (Sigma Co., R-6504) supplemented with 10% fetal bovine serum (FBS). The medium was exchanged every 5 day by 70%. U-937 cells were inoculated into a cell culture dish at concentration of 2×10^5 cells/ml. Then decursin added into the dish at concentration of 10^−8˜10^−6M, then the cells were cultured for 4 days. Trypan blue exclusion test was performed to determine the number of live cells using a hemacytometer, and the percentage of cancer-cell growth inhibition was calculated. Then, the differentiation was induced by treating with 10^−2M diluted ethanol solution containing various amount of decursin in the medium.

U-937 cells [4] = assay: Esterase activity test: α-naphthyl acetate esterase; assay type: cell-based, human; conditions: percentage of cells showing activity
Description: To determine α-naphthyl acetate esterase activity in the esterase activity test, the cultured solution of U-937 cells was pelleted by centrifugation at 2000 rpm for 5 minutes, followed by the addition of 100 μl PBS to prepare a cell-concentrated solution. A drop of the cell solution was put on a slide glass and dried for more than 1 hour. Then 40 ml of deionized water was preheated at 37° C. 1 ml of […] solution was mixed with 1 ml of Fast Blue BB base solution and left for 2 minutes. The mixture, being turned to yellow color with thick brown, was added to 40 ml of the preheated deionized water. After the addition of 5 ml of TRIZMAL TM 7.6 buffer solution (Sigma Co. 870-2) and 1 ml of α-naphthyl acetate solution, the resulting solution, which was turned to green color, was poured into a petri dish. The cells on a slide glass were fixed with citrate-acetone-formaldehyde solution (CAF solution) at room temperature. The cells were soaked in the previously prepared solution and incubated at 37° C. for 30 minutes at a dark place. The cells were completely washed with deionized water for more than 2 minutes and counterstained with hematoxylin solution for 2 minutes, washed with tap water and dried in the air. After completely dried, the cells were observed under a microscope to determine the blackish cell numbers.
(§2) Thus it was considered that the cells were differentiated into macrophage.like cells by the action of decursin.

U-937 cells [5] = assay: Phagocytosis test; assay type: cell-based, human; conditions: 1 × 10^−7M, incubated 4 days
Description: (§3) U-937 cells were plated on a cell culture dish at a concentration of 2×10^5 cells/ml in a medium containing 10^−7M decursin and incubated in a 5% CO2 incubator at 37° C.
In the phagocytosis test, 10^6 cells were well stirred and pelleted by centrifugation at 2000 rpm for 5 minutes. 1 ml of 0.2% serum free medium solution in polystyrene particle were added to the pellets, swayed and incubated at 37° C. for 4 hours. After being washed with phosphate buffered saline (PBS) three times, cell pellets were harvested and then about 200 μl of DPBS was added. The solution was lightly swayed and checked under a microscope to observe a minimum number of 200 cells. The number of cells containing the particles was calculated by percentage.
The results of phagocytosis test designed to assess the functional change according to differentiation of U-937 cells was shown in the following Table 8.

U-937 cells [6] = assay: NBT reduction test; assay type: cell-based, human; conditions: 1 × 10^−7M, incubated 4 days
Description: as §3
In the nitrobluetetrazolium (NBT) reduction test, cell solution (about 1×10^6 cells/ml) was well stirred and pelleted by centrifugation at 2000 rpm for 5 minutes. The pellets were suspended in 0.5 ml of medium, followed by the addition of a mixing solution (0.5 ml) containing 10^−6M formyl-methionine leucine phenylalanine (fMLP) and NBT 1.0 mg/DPBSml (1:9). The mixture was incubated at 37° C. for 30 minutes. The reaction was stopped in ice bath and centrifuged at 2000 rpm for 5 minutes. The supernatant was removed and then 200 μl of DPBS was added. The solution was lightly swayed and checked under a microscope to observe a minimum number of 200 cells. The number of NBT (+) cells was calculated by percentage.
The differentiation was investigated by using the fact that the differentiated leukocyte cells may generate superoxide anion by stimulation. […] The cultured mixture, which was reacted with superoxide, was reduced to form a precipitate. Then NBT was added to the precipitate (Table 7).

U-937 cells [7] = assay: Esterase activity test: naphthol AS-D chloroacetate esterase; assay type: cell-based, human; conditions: percentage of cells showing activity
Description: To determine naphthol AS-D chloroacetate esterase activity, the cultured solution of U-937 cells was pelleted by centrifugation at 2000 rpm for 5 minutes, followed by the addition of 100 μl PBS to prepare a cell-concentrated solution. A drop of the cell solution was put on a slide glass and dried for more than 1 hour. Then 40 ml of deionized water was preheated at 37° C. 1 ml of […] solution was mixed with 1 ml of Fast Red Violet LB base solution and left for 2 minutes. The mixture was added to 40 ml of preheated deionized water. After the addition of 5 ml of TRIZMAL TM 6.3) buffer solution (Sigma Co. T-3128) and 1 ml of naphthol AS-D chloroacetate solution, the resulting solution, which was turned to red color was poured on a petri dish. The cells on a slide glass were fixed with citrate-acetone-formaldehyde solution, (CAF solution) at room temperature. The cells were soaked in the previously prepared solution and incubated at 37° C. for 30 minutes at a dark place. The cells were completely washed with deionized water for more than 2 minutes and counterstained with hematoxylin solution for 2 minutes, washed with tap water and dried in the air. After completely dried, the cells were observed under a microscope to calculate the reddish cell numbers by percentage.
as §2

O=C1NC(=O)C(=O)C(=O)N1 [alloxan]
Urinary test Bilirubin: count in category + (ICR mice [1]): 2
Urinary test Bilirubin: count in category ++ (ICR mice [1]): 6
Urinary test Bilirubin: count in category +++ (ICR mice [1]): 2
Urinary test Glucose: count in category ++ (ICR mice [1]): 10
Urinary test Ketone: count in category ± (ICR mice [1]): 3
Urinary test Ketone: count in category − (ICR mice [1]): 7
Urinary test Nitrite: count in category + (ICR mice [1]): 4
Urinary test Nitrite: count in category − (ICR mice [1]): 6
Urinary test Occult blood: count in category ++ (ICR mice [1]): 2
Urinary test Occult blood: count in category +++ (ICR mice [1]): 8
Urinary test Protein: count in category − (ICR mice [1]): 10
Urinary test Specific gravity: count in category ++ (ICR mice [1]): 1
Urinary test Specific gravity: count in category +++ (ICR mice [1]): 9
Urinary test Urobilinogen: count in category + (ICR mice [1]): 10
Urinary test pH: count in category ± (ICR mice [1]): 10
BUN (ICR mice [2]): 17.4 ± 3.7 mg/dL
MDA in blood (ICR mice [2]): 0.51 ± 0.07 µg/mL
MDA in renal tissue (ICR mice [2]): 13.24 ± 5.93 µg/g

C=C1CC[C@H](O)C/C1=C/C=C1\CCC[C@]2(C)[C@@H]([C@H](C)CCCC(C)C)CC[C@@H]12 [Vitamin D3, reference compound]
Growth inhibition rate (%) (U-937 cells [3]; 1 × 10^−6M): 54.0 ± 6.7%
Growth inhibition rate (%) (U-937 cells [3]; 1 × 10^−7M): 42.5 ± 6.4%
Growth inhibition rate (%) (U-937 cells [3]; 1 × 10^−8M): 26.0 ± 5.7%
Growth inhibition rate (%) (U-937 cells [3]; 5 × 10^−7M): 48.0 ± 6.0%
Growth inhibition rate (%) (U-937 cells [3]; 5 × 10^−8M): 33.5 ± 0.7%
α-Naphtylacetate esterase Activity (%) (U-937 cells [4]): 79.3 ± 4.5%
α-Naphtylacetate esterase Activity (%) (U-937 cells [4]; listed as vitamin D3): 80%
Phagocytosis test: cells showing phagocytosis activity (U-937 cells [5]): 25.8 ± 1.3%
Phagocytosis test: cells showing phagocytosis activity (U-937 cells [5]; listed as vitamin D3): 25.8%
NBT reduction test: positive cells (U-937 cells [6]): 39.0 ± 2.1%
NBT reduction test: positive cells (U-937 cells [6]; listed as vitamin D3): 39%
Naphtol AS-D chloroacetate esterase Activity (%) (U-937 cells [7]): 0.0%
